Here are results for four molecules from US9426986B2, “Hyperbranched polycarbonates for solubilizing poorly soluble active substances” (BASF SE, priority 2009, dated 2016).

Values after ≈ are worked out from the molar mass of the structure shown.

A short description of data set [1]: Solubilization experiments, general procedure 1 (active ingredient content by UV spectroscopy or HPLC). The conditions noted are these: pH 7, aqueous buffer, thermodynamic from solid. As to the method: Approximately 2 g of polymer were weighed out into a 50 mL glass beaker. Then 0.2 g of each active ingredient was weighed into the batch to give a supersaturated solution. […] The mixture was then stirred at room temperature for 72 hours, using a magnetic stirrer. After a rest time of one hour, unsolubilized active ingredient was removed by filtration. The resulting clear or opaque solution was then analyzed for its active ingredient content by means of UV spectroscopy or HPLC.

How the values of data set [2] were obtained:
Approximately 100 mg of polymer were weighed out into a 50 mL glass beaker and dissolved in 9.900 g of distilled water. Then 100 mg of each active ingredient was weighed into the batch to give a supersaturated solution. The mixture was then stirred at room temperature for 24 hours, using a magnetic stirrer. After a rest time of one hour, unsolubilized active ingredient was removed by centrifuging. The resulting clear or opaque solution was then analyzed for its active ingredient content by means of UV spectroscopy.
The solubility was determined as described in procedure 2.

As to `CN1C(C(=O)Nc2ccccn2)=C(O)c2ccccc2S1(=O)=O` [Piroxicam], the solubility at 72 h in data set [1] was 420 µg/mL (≈ 1270 µM).
The molecule `NC(=O)N1c2ccccc2C=Cc2ccccc21` [Carbamazepine] registered a solubility at 72 h in data set [1] of 140 µg/mL (≈ 593 µM).
Still for that read-out and setting: the result for `Clc1ccccc1C(c1ccccc1)(c1ccccc1)n1ccnc1` [Clotrimazole] reads less than 100 µg/mL.
“polyethylene glycol monomethyl ether [PEG monomethyl ether]”: the “Solubility of Fipronil in the presence of polymer” value in data set [2] stood at 6 µg/mL.
